Test results taken from ChEMBL document CHEMBL1201862, “PubChem BioAssay data set” (2004).
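The compound was tested at five concentrations on cells cultured in 96-well plates, with a 48-hour exposure period. At the GI50, growth is halved.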 Activity calls are given as the source filed them. Rule as the data show it: active = GI50 up to about 1.1 µM and inactive = higher.

How the values were obtained:
Experiment in all cases: NCI tumour cell line growth inhibition, 48 h
786-0 = tested on: 786-0
A498 = tested on: A498
A549 = tested on: A549
ACHN = tested on: ACHN
CAKI-1 = tested on: CAKI-1
CCRF-CEM = tested on: CCRF-CEM
COLO 205 = tested on: COLO 205
DLD-1 = tested on: DLD-1
DMS-114 = tested on: DMS-114
EKVX = tested on: EKVX
HCC 2998 = tested on: HCC 2998
HCT-116 = tested on: HCT-116
HCT-15 = tested on: HCT-15
HL-60 = tested on: HL-60
HOP-18 = tested on: HOP-18
HOP-62 = tested on: HOP-62
HOP-92 = tested on: HOP-92
HT-29 = tested on: HT-29
IGROV-1 = tested on: IGROV-1
K562 = tested on: K562
KM-20L2 = tested on: KM-20L2
KM12 = tested on: KM12
LOX IMVI = tested on: LOX IMVI
LXFL 529 = tested on: LXFL 529
M14 = tested on: M14
M19-MEL = tested on: M19-MEL
MOLT-4 = tested on: MOLT-4
Malme-3M = tested on: Malme-3M
NCI-H23 = tested on: NCI-H23
NCI-H460 = tested on: NCI-H460
NCI-H522 = tested on: NCI-H522
OVCAR-4 = tested on: OVCAR-4
OVCAR-5 = tested on: OVCAR-5
OVCAR-8 = tested on: OVCAR-8
RPMI-8226 = tested on: RPMI-8226
RXF 393 = tested on: RXF 393
RXF 631 = tested on: RXF 631
SF-268 = tested on: SF-268
SF-295 = tested on: SF-295
SF-539 = tested on: SF-539
SK-MEL-28 = tested on: SK-MEL-28
SK-MEL-2 = tested on: SK-MEL-2
SK-MEL-5 = tested on: SK-MEL-5
SK-OV-3 = tested on: SK-OV-3
SN12C = tested on: SN12C
SNB-19 = tested on: SNB-19
SNB-75 = tested on: SNB-75
SNB-78 = tested on: SNB-78
SR = tested on: SR
SW-620 = tested on: SW-620
TK-10 = tested on: TK-10
U-251 = tested on: U-251
UACC-257 = tested on: UACC-257
UACC-62 = tested on: UACC-62
UO-31 = tested on: UO-31
XF498 = tested on: XF498

C=CCONC(=O)c1ccc(Cl)cc1 was tested. Which GI50 (786-0) did it give?
Its GI50 is > 100 µM (inactive).

And the GI50 (A498)?
The GI50 was > 100 µM (inactive).

And the GI50 (A549)?
The GI50 was > 100 µM (inactive).

What about the GI50 (ACHN) of the same compound?
Its GI50 is > 100 µM (inactive).

And the GI50 (CAKI-1)?
Its GI50 is > 100 µM (inactive).

What about the GI50 (CCRF-CEM) of the same compound?
Its GI50 is > 100 µM (inactive).

What about the GI50 (COLO 205) of the same compound?
Its GI50 is > 100 µM (inactive).

And the GI50 (DLD-1)?
The GI50 was > 100 µM (inactive).

What about the GI50 (DMS-114) of the same compound?
Its GI50 is > 100 µM (inactive).

What about the GI50 (EKVX) of the same compound?
The GI50 was > 100 µM (inactive).

What about the GI50 (HCC 2998) of the same compound?
Its GI50 is > 100 µM (inactive).

What about the GI50 (HCT-116) of the same compound?
Its GI50 is > 100 µM (inactive).

And the GI50 (HCT-15)?
Its GI50 is greater than 100 µM.

And the GI50 (HL-60)?
Its GI50 is > 100 µM (inactive).

What about the GI50 (HOP-18) of the same compound?
Its GI50 is > 100 µM (inactive).

And the GI50 (HOP-62)?
Its GI50 is > 100 µM (inactive).

And the GI50 (HOP-92)?
The GI50 was > 100 µM (inactive).

And the GI50 (HT-29)?
The GI50 was > 100 µM (inactive).

What about the GI50 (IGROV-1) of the same compound?
The GI50 was > 100 µM (inactive).

And the GI50 (K562)?
Its GI50 is > 100 µM (inactive).

And the GI50 (KM-20L2)?
The GI50 was > 100 µM (inactive).

What about the GI50 (KM12) of the same compound?
The GI50 was > 100 µM (inactive).

And the GI50 (LOX IMVI)?
The GI50 was > 100 µM (inactive).

And the GI50 (LXFL 529)?
The GI50 was > 100 µM (inactive).

What about the GI50 (M14) of the same compound?
Its GI50 is > 100 µM (inactive).

What about the GI50 (M19-MEL) of the same compound?
Its GI50 is > 100 µM (inactive).

What about the GI50 (MOLT-4) of the same compound?
The GI50 was > 100 µM (inactive).

And the GI50 (Malme-3M)?
Its GI50 is > 100 µM (inactive).

And the GI50 (NCI-H23)?
The GI50 was > 100 µM (inactive).

And the GI50 (NCI-H460)?
Its GI50 is > 100 µM (inactive).

What about the GI50 (NCI-H522) of the same compound?
Its GI50 is > 100 µM (inactive).

What about the GI50 (OVCAR-4) of the same compound?
Its GI50 is > 100 µM (inactive).

What about the GI50 (OVCAR-5) of the same compound?
The GI50 was > 100 µM (inactive).

What about the GI50 (OVCAR-8) of the same compound?
The GI50 was > 100 µM (inactive).

And the GI50 (RPMI-8226)?
The GI50 was > 100 µM (inactive).

And the GI50 (RXF 393)?
Its GI50 is > 100 µM (inactive).

What about the GI50 (RXF 631) of the same compound?
The GI50 was > 100 µM (inactive).

What about the GI50 (SF-268) of the same compound?
Its GI50 is > 100 µM (inactive).

What about the GI50 (SF-295) of the same compound?
Its GI50 is > 100 µM (inactive).

What about the GI50 (SF-539) of the same compound?
The GI50 was > 100 µM (inactive).

And the GI50 (SK-MEL-28)?
Its GI50 is > 100 µM (inactive).

What about the GI50 (SK-MEL-2) of the same compound?
Its GI50 is > 100 µM (inactive).

And the GI50 (SK-MEL-5)?
Its GI50 is > 100 µM (inactive).

What about the GI50 (SK-OV-3) of the same compound?
Its GI50 is > 100 µM (inactive).

What about the GI50 (SN12C) of the same compound?
Its GI50 is > 100 µM (inactive).

What about the GI50 (SNB-19) of the same compound?
Its GI50 is > 100 µM (inactive).

And the GI50 (SNB-75)?
The GI50 was 84.1 µM (inactive).

What about the GI50 (SNB-78) of the same compound?
The GI50 was > 100 µM (inactive).

And the GI50 (SR)?
The GI50 was > 100 µM (inactive).

What about the GI50 (SW-620) of the same compound?
Its GI50 is > 100 µM (inactive).

What about the GI50 (TK-10) of the same compound?
The GI50 was > 100 µM (inactive).

What about the GI50 (U-251) of the same compound?
Its GI50 is > 100 µM (inactive).

And the GI50 (UACC-257)?
Its GI50 is > 100 µM (inactive).

What about the GI50 (UACC-62) of the same compound?
Its GI50 is > 100 µM (inactive).

What about the GI50 (UO-31) of the same compound?
Its GI50 is > 100 µM (inactive).

What about the GI50 (XF498) of the same compound?
Its GI50 is > 100 µM (inactive).
